Data published in article PMC7228089, “Odiparcil, a potential glycosaminoglycans clearance therapy in mucopolysaccharidosis VI—Evidence from in vitro and in vivo models” (PLoS ONE, 2020).
pEC50: −log10 of the molar value.

Assays:
[1] = test system: Primary skin fibroblasts from MPS VI patients GM00538 and GM02572; experiment: Intracellular chondroitin sulphate ([CS-56] immunofluorescence) in MPS VI patient skin fibroblasts; type: cell-based, human; details: 72 h
Method: Primary skin fibroblasts from MPS VI patients GM00538 and GM02572 were obtained from the NIGMS Human Genetic Cell Repository at the Coriell Institute for Medical Research. Cell culturing was done according to the conditions provided by the Coriell Institute. For evaluation of the effect of odiparcil, cells were seeded in 96 well imaging plates (Falcon Cat N 353219) and two types of treatment were evaluated: i) prophylactic conditions—cells were treated with odiparcil before reaching confluence, 24 hours after plating; and ii) curative conditions—cells were treated with odiparcil after reaching confluence (10 days culturing). Cells were treated by odiparcil added to the culture media. This was done by replacing the initial culture media by media containing 0.1% DMSO with or without odiparcil (at 0.01, 0.03, 0.1, 0.3, 1, 3 and 10 μM). For treatment, the cells were incubated for 72 hours at 37°C, 5% CO2. All experimental conditions were performed in triplicate, i.e., 3 wells/test condition.
After odiparcil treatment as described above, culture media were removed to be used for dimethylmethylene blue (DMMB) assay and the cells were fixed in PFA 4%. […]
For statistical analyses, commercial software (GraphPad Prism 5) was used. EC50 were calculated using the build in function Nonlinear fit for “log (inhibitor) vs. response—Variable slope (four parameters)”. […]

Arsb^- mice [2] = experiment: Granule accumulation in leukocytes (May-Grunwald-Giemsa blood smears); type: in vivo; details: early disease treatment, 6 months, high dose (4.5 g/kg diet)
Method: (§1) MPS VI model nonsense mutation Arsb^m1J homozygous mice (referred to as Arsb^- throughout the manuscript) and WT littermates were obtained from internal breeding of stock mice derived from The Jackson Laboratory strain No: 005598 (C57BL/6J-Arsb^m1J/GrsrJ). Genotyping and Arsb^m1J mutation identification were performed according to the protocol provided by The Jackson Laboratory. Each study group contained mix of male and female: 6 animals in disease progression studies and between 8 and 12 animals in odiparcil treatment studies.
Housing conditions. The animals were housed in groups of 3–10 (for mice) or 2 (for rats) in polypropylene cages (floor area = 1032 cm^2) under standard conditions: room temperature (22 ± 2°C), hygrometry (55 ± 10%), light/dark cycle (12h/12h), air replacement (15–20 volumes/hour), water and food ad libitum. Mice were allowed to habituate for at least 5 days prior to experimentation. Mice were numbered by marking their tail using indelible markers. […]
Quantification of the accumulation of granules in leukocytes was done after May-Grunwald–Giemsa staining of blood smears and microscopic examination. […] Only blood smears from WT chow diet, Arsb^- chow diet and Arsb^- treated with high dose of odiparcil (4.5 g/kg diet) were analyzed. […]

Arsb^- mice [3] = experiment: Urinary excretion of total sulphated GAG (Blyscan) in mice treated with odiparcil; type: in vivo
Method: as §1
Housing conditions. The animals were housed in groups of 3–10 (for mice) or 2 (for rats) in polypropylene cages (floor area = 1032 cm^2) under standard conditions: room temperature (22 ± 2°C), hygrometry (55 ± 10%), light/dark cycle (12h/12h), air replacement (15–20 volumes/hour), water and food ad libitum. […]
Total sulphated GAG in cell culture media were determined colorimetrically by DMMB method (described in [31] adapted for cell culture media). Total sulphated GAG in snap frozen liver and kidney samples and urine were measured using Blyscan assay from Biocolor Company (UK) following manufacturer’s instructions. […] For GAG in tissues quantification, individual pieces (approximately 50 mg) were removed from the frozen samples (liver and kidney), weighed and digested in 1 mL papain solution prepared according to the Blyscan kit protocol. […]

For `Cc1cc(=O)oc2cc(O[C@@H]3SC[C@@H](O)[C@H](O)[C@H]3O)ccc12` [Odiparcil, 4-methyl-7-(5-thio-β-D-xylopyranosyloxy)-2 H-chromen-2-one], the “Effect on intracellular pool of CS” value ([1]; 10 μM odiparcil) was “almost completely eliminated intracellular pool of CS”, the pEC50 ([1]; Homo sapiens, Skin fibroblast, growing and confluent cell culture conditions, read-out: EC50 for the reduction of intracellular CS levels) was ~6.00 and the “Leukocytes with high granules accumulation” value (Arsb^- mice [2]) was “reduced number of leukocytes with high granules accumulation”. For the same molecule, the “Urinary GAG after discontinuation of the treatment” value (Arsb^- mice [3]; Arsb^- mice, two weeks after discontinuation) was “no elevated GAG were detected on top of the basal level” and the “Total sulphated GAG in urine” value (Arsb^- mice [3]; wild type and Arsb^- mice, oral 1.5 or 4.5 g/kg diet, after 3 and 6 months, early and advanced disease protocols) was “elevation of total GAG in urine”.
